# Experimental data as given in US20250136606A1, “MODULATORS OF TRPML, THEIR COMPOSITIONS AND METHODS OF USE” (Caraway Therapeutics, Inc., priority 2021, published 2025).
# Columns and labels:
# [1] = target: T1, TRPML3 (Homo sapiens, UniProt Q8TDD5); assay: Fluorescent TRPML3 assay (performed as for TRPML1, substituting the TRPML3 subtype); format: cell-based
# T1 construct: expressed in transfected cells
# T1 sequence (Q8TDD5 1-553): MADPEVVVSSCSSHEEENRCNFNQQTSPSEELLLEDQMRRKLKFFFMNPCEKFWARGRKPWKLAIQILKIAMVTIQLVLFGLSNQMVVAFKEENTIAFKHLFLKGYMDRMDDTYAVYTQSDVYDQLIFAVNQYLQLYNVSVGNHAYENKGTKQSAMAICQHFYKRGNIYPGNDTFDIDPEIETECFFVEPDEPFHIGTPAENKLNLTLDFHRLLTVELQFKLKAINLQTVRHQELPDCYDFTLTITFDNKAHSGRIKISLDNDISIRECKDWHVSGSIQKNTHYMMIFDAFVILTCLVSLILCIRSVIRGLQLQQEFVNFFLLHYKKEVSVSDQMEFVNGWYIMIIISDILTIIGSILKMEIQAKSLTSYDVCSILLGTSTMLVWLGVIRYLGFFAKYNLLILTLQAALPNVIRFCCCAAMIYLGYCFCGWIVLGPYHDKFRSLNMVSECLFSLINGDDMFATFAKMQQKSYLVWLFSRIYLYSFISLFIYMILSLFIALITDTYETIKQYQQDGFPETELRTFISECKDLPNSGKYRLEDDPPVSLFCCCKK
# Outline: (§1)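 Calcium-influx readout: Fluo4 fluorescence at 480/540 nm, normalised to positive and negative controls per plate, EC50 fitted by non-linear regression. Cells were HEK-293 Trex stable lines, channel expression induced overnight with 0.5 ug/mL doxycycline; tested at 20 micromolar down to 6 nanomolar final, half-log steps, triplicate.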
# [2] = target: T2, TRPML2 (Homo sapiens, UniProt Q8IZK6); assay: Fluorescent TRPML2 assay (performed as for TRPML1, substituting the TRPML2 subtype); format: cell-based
# T2 construct: expressed in transfected cells
# T2 sequence (Q8IZK6 1-566): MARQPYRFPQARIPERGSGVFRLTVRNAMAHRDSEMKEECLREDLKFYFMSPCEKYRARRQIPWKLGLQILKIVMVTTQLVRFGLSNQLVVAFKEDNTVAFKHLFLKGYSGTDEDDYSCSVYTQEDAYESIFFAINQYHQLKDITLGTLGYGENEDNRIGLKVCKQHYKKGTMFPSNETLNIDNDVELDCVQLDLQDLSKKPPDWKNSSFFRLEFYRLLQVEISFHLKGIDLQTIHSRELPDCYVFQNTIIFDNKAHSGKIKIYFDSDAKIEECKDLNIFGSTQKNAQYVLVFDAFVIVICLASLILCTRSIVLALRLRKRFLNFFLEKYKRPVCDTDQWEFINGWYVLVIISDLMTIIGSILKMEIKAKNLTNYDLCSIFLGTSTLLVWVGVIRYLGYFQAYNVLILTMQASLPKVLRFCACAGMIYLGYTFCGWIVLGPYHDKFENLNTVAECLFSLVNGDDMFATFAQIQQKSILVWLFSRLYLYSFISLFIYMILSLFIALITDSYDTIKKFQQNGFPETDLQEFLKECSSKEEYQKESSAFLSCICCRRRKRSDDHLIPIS
# Outline: as §1
# [3] = target: TRPML1 (Homo sapiens, UniProt Q9GZU1); assay: Fluorescent TRPML1 assay (Fluo4-AM calcium fluorescence in doxycycline-induced HEK-293 Trex cells); format: cell-based
# Sequence of TRPML1 (Homo sapiens, UniProt Q9GZU1) (Q9GZU1 whole entry L15A/L16A/L577A/L578A, form open): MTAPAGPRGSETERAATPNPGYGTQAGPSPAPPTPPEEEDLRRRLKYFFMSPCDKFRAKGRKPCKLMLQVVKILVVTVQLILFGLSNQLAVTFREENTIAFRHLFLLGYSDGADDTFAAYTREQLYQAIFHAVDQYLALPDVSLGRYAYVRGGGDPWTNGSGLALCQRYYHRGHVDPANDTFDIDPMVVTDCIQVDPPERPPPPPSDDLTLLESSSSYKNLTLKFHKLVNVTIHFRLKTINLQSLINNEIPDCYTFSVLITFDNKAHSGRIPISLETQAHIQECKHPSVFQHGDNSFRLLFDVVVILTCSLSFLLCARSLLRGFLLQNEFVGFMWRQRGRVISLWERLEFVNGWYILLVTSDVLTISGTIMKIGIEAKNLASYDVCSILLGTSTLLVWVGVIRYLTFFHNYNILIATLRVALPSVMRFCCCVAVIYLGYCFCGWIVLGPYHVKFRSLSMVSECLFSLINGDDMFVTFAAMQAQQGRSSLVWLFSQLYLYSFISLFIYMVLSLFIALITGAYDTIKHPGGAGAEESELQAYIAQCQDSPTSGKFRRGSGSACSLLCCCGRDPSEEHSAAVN
# Outline: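 EC50 values come from non-linear regression of percent activity, normalized to on-plate positive and negative controls, with fluorescence read at 480 nm excitation and 540 nm emission. Fluo4-AM-loaded (1 µM) doxycycline-induced HEK-293 Trex cells expressing mutated human TRPML1 were exposed in 10 mM calcium Ringer's to 6 nM–20 µM compound, in triplicate.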
# [4] = system: TRPML1; conditions: cited from earlier work
Compound,EC50 [1] [nM],EC50 [2] [nM],EC50 [3] [nM],[Ca2+] increases ([4]; HEK293 cells stably or transiently expressing TRPML1 with its lysosomal targeting sequence deleted),"concentration needed to effectively activate TRPMLs ([4]; TRPMLs, high concentrations needed) [µM]"
"CC(C)(C)OC(=O)N1CCN(c2ncnc3c2c(C(F)(F)F)cn3-c2cc(C#N)ccn2)CC1 [Compound 708, tert-butyl 4-(7-(4-cyanopyridin-2-yl)-5-(trifluoromethyl)-7H-pyrrolo[2,3-d]pyrimidin-4-yl)piperazine-1-carboxylate]",500 to 2000,500 to 2000,500 to 2000,–,–
"C#Cc1ccnc(-n2cc(C(F)(F)F)c3c(N4C[C@@H](C)N(C(=O)OC(C)(C)C)C[C@@H]4C)ncnc32)c1 [Compound 716, tert-butyl (2R,5S)-4-(7-(4-ethynylpyridin-2-yl)-5-(trifluoromethyl)-7H-pyrrolo[2,3-d]pyrimidin-4-yl)-2,5-dimethylpiperazine-1-carboxylate]",100 to 500,500 to 2000,100 to 500,–,–
"CCc1ccnc(-n2cc(C3CC3)c3c(N4C[C@@H](C)N(C(=O)OC(C)(C)C)C[C@@H]4C)ncnc32)c1 [Compound 717, tert-butyl (2R,5S)-4-(5-cyclopropyl-7-(4-ethylpyridin-2-yl)-7H-pyrrolo[2,3-d]pyrimidin-4-yl)-2,5-dimethylpiperazine-1-carboxylate]",< 100,100 to 500,< 100,–,–
"CCc1ccnc(-n2cc(C(F)(F)F)c3c(N4C[C@@H](C)N(C(=O)OC(C)(C)C)C[C@@H]4C)ncnc32)c1 [Compound 718, tert-butyl (2R,5S)-4-(7-(4-ethylpyridin-2-yl)-5-(trifluoromethyl)-7H-pyrrolo[2,3-d]pyrimidin-4-yl)-2,5-dimethylpiperazine-1-carboxylate]",100 to 500,500 to 2000,100 to 500,–,–
ML-SA1,–,–,–,significant [Ca2+] increases,~10

# Continued, in another order:
EC50 [1] [nM],EC50 [2] [nM],EC50 [3] [nM],Compound,[Ca2+] increases ([4]; HEK293 cells stably or transiently expressing TRPML1 with its lysosomal targeting sequence deleted),"concentration needed to effectively activate TRPMLs ([4]; TRPMLs, high concentrations needed) [µM]"
< 100,< 100,< 100,"[2H]C([2H])([2H])[C@@H]1CN(c2ncnc3c2c(C(F)(F)F)cn3-c2cc(C#N)ccn2)[C@@H](C)CN1C(=O)OC(C)(C)C [Compound 707, tert-butyl (2R,5S)-4-(7-(4-cyanopyridin-2-yl)-5-(trifluoromethyl)-7H-pyrrolo[2,3-d]pyrimidin-4-yl)-5-methyl-2-(methyl-d3)piperazine-1-carboxylate]",–,–
< 100,< 100,< 100,"[2H]C([2H])([2H])[C@@H]1CN(c2ncnc3c(-c4cc(C#N)ccn4)cn(-c4ccccc4F)c23)[C@@H](C)CN1C(=O)OC(C)(C)C [Compound 709, tert-butyl (2R,5S)-4-(7-(4-cyanopyridin-2-yl)-5-(2-fluorophenyl)-5H-pyrrolo[3,2-d]pyrimidin-4-yl)-5-methyl-2-(methyl-d3)piperazine-1-carboxylate]",–,–
< 100,100 to 500,< 100,"C[C@@H]1CN(c2ncnc3c2c(C2CCC2)cn3-c2cc(C#N)ccn2)[C@@H](C)CN1C(=O)OC(C)(C)C [Compound 710, tert-butyl (2R,5S)-4-(7-(4-cyanopyridin-2-yl)-5-cyclobutyl-7H-pyrrolo[2,3-d]pyrimidin-4-yl)-2,5-dimethylpiperazine-1-carboxylate]",–,–
100 to 500,500 to 2000,< 100,"[2H]C([2H])([2H])[C@@H]1CN(c2ncnc3c2c(C2CC2)cn3-c2cc(C#N)ccn2)[C@@H](C)CN1C(=O)OC(C)(C)C [Compound 711, tert-butyl (2R,5S)-4-(7-(4-cyanopyridin-2-yl)-5-cyclopropyl-7H-pyrrolo[2,3-d]pyrimidin-4-yl)-5-methyl-2-(methyl-d3)piperazine-1-carboxylate]",–,–
< 100,< 100,< 100,"[2H]C([2H])([2H])[C@@H]1CN(c2ncnc3c2c(-c2ccccc2F)cn3-c2cc(C#N)ccn2)[C@@H](C)CN1C(=O)OC(C)(C)C [Compound 712, tert-butyl (2R,5S)-4-(7-(4-cyanopyridin-2-yl)-5-(2-fluorophenyl)-7H-pyrrolo[2,3-d]pyrimidin-4-yl)-5-methyl-2-(methyl-d3)piperazine-1-carboxylate]",–,–
< 100,< 100,< 100,"C#Cc1ccnc(-n2cc(C3CC3)c3c(N4C[C@@H](C)N(C(=O)OC(C)(C)C)C[C@@H]4C)ncnc32)c1 [Compound 715, tert-butyl (2R,5S)-4-(5-cyclopropyl-7-(4-ethynylpyridin-2-yl)-7H-pyrrolo[2,3-d]pyrimidin-4-yl)-2,5-dimethylpiperazine-1-carboxylate]",–,–
